Assay results reported in paper PMC7667546 (Iranian Journal of Pharmaceutical Research : IJPR, 2020).
≈ marks a conversion by molar mass, not a printed value. Where “and” joins values, the source holds several entries; their conditions need not be identical. Identical values can stand only once. Counter-ions that a name gives are not always drawn. Like-named read-outs stand apart in the source and are kept apart here.

Key:
[1] = biological target: T1, acetylcholinesterase (AChE) (Homo sapiens, UniProt P22303); assay: biochemical; conditions: for inhibition at 10 µg/mL: read-out: Inhibition (%) AChE
T1 construct: purchased Sigma-Aldrich (Steinheim, Germany)
T1 sequence (P22303 32-614, species assumed): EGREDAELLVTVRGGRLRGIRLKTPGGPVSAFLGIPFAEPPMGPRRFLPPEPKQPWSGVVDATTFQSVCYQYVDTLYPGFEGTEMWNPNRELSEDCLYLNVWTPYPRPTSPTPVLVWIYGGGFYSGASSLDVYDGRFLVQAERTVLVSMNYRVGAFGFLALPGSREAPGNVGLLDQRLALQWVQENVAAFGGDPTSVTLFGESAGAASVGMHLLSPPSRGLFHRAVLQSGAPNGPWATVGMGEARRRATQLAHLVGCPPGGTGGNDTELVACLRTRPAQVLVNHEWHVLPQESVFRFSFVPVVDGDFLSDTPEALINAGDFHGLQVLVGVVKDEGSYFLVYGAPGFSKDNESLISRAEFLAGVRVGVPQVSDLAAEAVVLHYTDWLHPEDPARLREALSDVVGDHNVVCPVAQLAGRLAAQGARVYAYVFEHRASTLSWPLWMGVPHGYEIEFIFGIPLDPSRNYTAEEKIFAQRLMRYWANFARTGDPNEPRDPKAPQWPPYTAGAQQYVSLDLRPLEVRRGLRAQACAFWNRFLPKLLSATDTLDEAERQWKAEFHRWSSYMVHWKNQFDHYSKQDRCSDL
Protocol: (§1) Details of all biological activity and molecular modeling studies are given as supplementary material. The enzyme activities of the extracts were studied by observing urease, tyrosinase acetyl- and butyryl-cholinesterase inhibition activities ([22]-[25]). The ligands were then applied with partial atomic charges derived by ﬁtting Antechamber obtained by electronic structure calculation module in AMBER and assigned the AM1-BCC charges ([26]-[29]).
(§2) All compounds were assayed in-vitro against AChE and BChE at 100-0.1 µg/mL.

[2] = biological target: T2, butyrylcholinesterase (BChE) (Homo sapiens, UniProt P06276); assay: Butyrylcholinesterase inhibition in vitro; type: biochemical; conditions: for IC50: assayed at 100-0.1 µg/mL, mean ± S.D.; for inhibition at 10 µg/mL: read-out: Inhibition (%) BChE
T2 construct: purchased Sigma-Aldrich (Steinheim, Germany)
T2 sequence (P06276 29-602): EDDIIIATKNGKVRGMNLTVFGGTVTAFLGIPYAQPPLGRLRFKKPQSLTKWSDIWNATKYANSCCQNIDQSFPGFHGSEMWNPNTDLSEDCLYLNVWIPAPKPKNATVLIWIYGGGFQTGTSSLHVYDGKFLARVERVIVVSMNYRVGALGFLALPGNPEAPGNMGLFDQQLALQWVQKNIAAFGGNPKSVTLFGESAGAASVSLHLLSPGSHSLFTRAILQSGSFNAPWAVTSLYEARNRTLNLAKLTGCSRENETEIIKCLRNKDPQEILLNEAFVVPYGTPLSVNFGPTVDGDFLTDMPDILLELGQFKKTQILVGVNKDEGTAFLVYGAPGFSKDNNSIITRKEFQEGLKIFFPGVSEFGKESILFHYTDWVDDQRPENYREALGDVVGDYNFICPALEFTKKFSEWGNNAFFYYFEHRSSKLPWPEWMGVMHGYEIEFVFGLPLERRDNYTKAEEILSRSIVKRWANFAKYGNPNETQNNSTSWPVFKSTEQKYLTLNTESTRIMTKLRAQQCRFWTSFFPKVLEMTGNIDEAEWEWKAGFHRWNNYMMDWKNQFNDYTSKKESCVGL
Protocol: as §1, §2

[3] = test system: tyrosinase; assay: Tyrosinase inhibition in vitro; type: biochemical, mushroom; conditions: N.A. = not active; for Inhibition (%) Tyrosinase: 10µg/mL, mean ± S.D. of three measurements; for Equivalent Tyrosinase (µg kojic acid activity/mg compound): mean ± S.D.
Source text: as §1

[4] = biological target: T3, urease (Canavalia ensiformis, UniProt P07374); assay: biochemical; parameters: species or system Canavalia ensiformis (Jack bean); conditions: N.A. = not active; for Inhibition (%) Urease: 10µg/mL; for Inhibition (%) Urease / inhibition at 10 µg/mL: mean ± S.D. of three measurements; for Equivalent Urease (µg thiourea activity/mg compound): mean ± S.D.; for inhibition at 10 µg/mL: read-out: Inhibition (%) Urease, 10µg/mL
T3 construct: purchased Sigma (Germany) Type III, powder, 15,000-50,000 units/g solid
T3 sequence (P07374 whole entry, looked up): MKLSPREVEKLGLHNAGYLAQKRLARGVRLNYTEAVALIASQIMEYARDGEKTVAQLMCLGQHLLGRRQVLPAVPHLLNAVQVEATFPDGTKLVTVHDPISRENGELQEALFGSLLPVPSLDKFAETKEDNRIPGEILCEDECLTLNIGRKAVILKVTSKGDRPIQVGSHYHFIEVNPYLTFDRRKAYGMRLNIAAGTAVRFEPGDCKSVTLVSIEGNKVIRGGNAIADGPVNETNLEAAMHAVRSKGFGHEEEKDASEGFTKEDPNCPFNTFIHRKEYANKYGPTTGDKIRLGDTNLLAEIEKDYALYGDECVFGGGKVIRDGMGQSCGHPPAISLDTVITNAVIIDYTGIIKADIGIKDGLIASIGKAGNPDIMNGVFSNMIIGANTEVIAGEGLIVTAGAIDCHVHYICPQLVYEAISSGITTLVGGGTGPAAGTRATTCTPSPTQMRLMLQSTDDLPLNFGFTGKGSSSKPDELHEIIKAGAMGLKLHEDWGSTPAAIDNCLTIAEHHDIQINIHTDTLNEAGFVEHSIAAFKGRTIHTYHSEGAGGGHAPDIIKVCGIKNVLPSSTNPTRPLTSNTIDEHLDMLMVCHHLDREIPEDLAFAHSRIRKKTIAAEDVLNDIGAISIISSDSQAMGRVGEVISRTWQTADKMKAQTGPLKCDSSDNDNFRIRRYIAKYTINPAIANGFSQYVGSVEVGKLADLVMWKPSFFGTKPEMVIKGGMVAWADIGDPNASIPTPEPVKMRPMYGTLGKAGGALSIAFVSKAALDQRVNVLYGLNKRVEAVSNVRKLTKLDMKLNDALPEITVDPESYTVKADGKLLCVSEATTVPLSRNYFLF
Source text: as §1

[5] = test system: BChE; parameters: method as in Senol et al (2017); conditions: ref Senol et al (2017); cited from earlier work
[6] = test system: BChE; parameters: method as in Ramirez et al. ([39]); conditions: ref Ramirez et al. ([39]); read-out: IC50 against BChE; cited from earlier work
[7] = 10µg/mL, mean ± S.D. of three measurements, N.A. = not active
[8] = assayed at 100-0.1 µg/mL, mean ± S.D., N.A. = not active, read-out: IC50 AChE (converted)
[9] = read-out: IC50 BChE (converted)

SMILES: O=C(/C=C/c1ccc(O)c(O)c1)O[C@H](Cc1ccc(O)c(O)c1)C(=O)O [Compound 1, Rosmarinic acid]
- inhibition at 10 µg/mL [1, 7]: 20.2 ± 0.21%
- IC50 [1, 8]: > 278 µM
- IC50 ([2]; IC50 BChE): 35.4 µM
- inhibition at 10 µg/mL [2]: 42.76 ± 0.32%
- Inhibition (%) Tyrosinase [3]: 12.11±0.02%
- Equivalent Tyrosinase (µg kojic acid activity/mg compound) [3]: 105.58±0.18 µg kojic acid activity/mg compound

SMILES: COc1ccc(-c2cc(=O)c3c(O)c(OC)c(OC)cc3o2)cc1 [Compound 2, Salvigenin]
- inhibition at 10 µg/mL [1, 7]: 22.72 ± 0.14%
- IC50 [1, 8]: > 305 µM
- inhibition at 10 µg/mL [2, 7]: 43.13 ± 0.21%
- IC50 [2, 9]: 34.9 µM

SMILES: O=C(/C=C/c1ccc(O)c2c1[C@H](C(=O)O[C@H](Cc1ccc(O)c(O)c1)C(=O)O)[C@@H](c1ccc(O)c(O)c1)O2)O[C@H](Cc1ccc(O)c(O)c1)C(=O)O [Compound 3, Salvianolic acid B]
- IC50 [1]: > 139 µM
- inhibition at 10 µg/mL [1, 7]: 10.11 ± 0.08%
- inhibition at 10 µg/mL [2, 7]: 49.83 ± 0.27%
- IC50 ([2]; IC50 BChE): 14.6 µM
- Inhibition (%) Urease [4]: 45.52±0.68%
- Equivalent Urease (µg thiourea activity/mg compound) [4]: 192.26±0.21 µg thiourea activity/mg compou
- inhibition at 10 µg/mL [4]: 49.83 ± 0.27%

SMILES: O=C(/C=C/c1ccc(O)c(O)c1/C=C/c1ccc(O)c(O)c1)O[C@H](Cc1ccc(O)c(O)c1)C(=O)O [Compound 4, Salvianolic acid A]
- IC50 [1]: 46.6 µM
- inhibition at 10 µg/mL [1, 7]: 38.82 ± 0.12%
- inhibition at 10 µg/mL [2, 7]: 27.49 ± 0.08%
- IC50 ([2]; IC50 BChE): 97.7 µM

SMILES: Cc1coc2c1C(=O)C(=O)c1c-2ccc2c1CCCC2(C)C [Compound 5, Tanshinone IIA]
- IC50 [1, 8]: > 340 µM
- inhibition at 10 µg/mL [1]: 32.3 ± 0.44%
- IC50 [2, 9]: 3.8 µM
- inhibition at 10 µg/mL [2]: 66.3 ± 1.18%
- Equivalent Urease (µg thiourea activity/mg compound) [4]: 16.12±0.01 µg thiourea activity/mg compou
- inhibition at 10 µg/mL [4]: 14.3 ± 0.42%

SMILES: Cc1cccc2c3c(ccc12)C1=C(C(=O)C3=O)[C@@H](C)CO1 [Compound 6, Dihydrotanshinone I]
- IC50 [1]: 5.39 µM
- inhibition at 10 µg/mL [1]: 64.54 ± 0.36%
- IC50 ([2]; IC50 BChE): 1.8 µM
- inhibition at 10 µg/mL [2]: 87.19 ± 0.23%
- IC50 value (BChE) [5]: 1.71 µg/mL (≈ 6.14 µM)

SMILES: Cc1coc2c1C(=O)C(=O)c1c-2ccc2c(C)cccc12 [Compound 7, Tanshinone I]
- IC50 [1]: 138 µM
- inhibition at 10 µg/mL [1]: 31.3 ± 0.72%
- IC50 ([2]; IC50 BChE): 100 µM
- inhibition at 10 µg/mL [2]: 33 ± 0.86%
- Equivalent Urease (µg thiourea activity/mg compound) [4]: 174.73±0.19 µg thiourea activity/mg compou
- inhibition at 10 µg/mL [4]: 42.4 ± 0.85%
- Inhibition (%) Tyrosinase [3]: 39.82±1.16%
- Equivalent Tyrosinase (µg kojic acid activity/mg compound) [3]: 372.86±2.47 µg kojic acid activity/mg compound

SMILES: CC(C)c1cc2c(c(O)c1O)[C@@]1(C(=O)O)CCCC(C)(C)[C@@H]1CC2 [Compound 8, Carnosic Acid]
- inhibition at 10 µg/mL [1, 7]: 38 ± 0.96%
- IC50 [1, 8]: 95.7 µM
- IC50 ([2]; IC50 BChE): 12.4 µM
- inhibition at 10 µg/mL [2]: 58.5 ± 1.18%
- Equivalent Urease (µg thiourea activity/mg compound) [4]: 62.12±0.07 µg thiourea activity/mg compou
- inhibition at 10 µg/mL [4]: 22.42 ± 0.15%
- Inhibition (%) Tyrosinase [3]: 5.92±0.06%
- Equivalent Tyrosinase (µg kojic acid activity/mg compound) [3]: 45.93±0.71 µg kojic acid activity/mg compound

SMILES: CC(C)c1cc2c(c(O)c1O)[C@@]13CCCC(C)(C)[C@@H]1C[C@@H]2OC3=O [Compound 9, Carnosol]
- inhibition at 10 µg/mL [1, 7]: 47.6 ± 23%
- IC50 [1, 8]: 33.7 µM
- inhibition at 10 µg/mL [2, 7]: 57.99 ± 0.15%
- IC50 [2, 9]: 11.9 µM and 12.5 µM
- Equivalent Urease (µg thiourea activity/mg compound) [4]: 26.60±0.03 µg thiourea activity/mg compou
- inhibition at 10 µg/mL [4]: 16.1 ± 0.42%
- IC50 [6]: 5.1 µM

SMILES: C[C@H]1COC2=C1C(=O)C(=O)c1c2ccc2c1CCCC2(C)C [Compound 10, Cryptotanshinone]
- IC50 [1]: > 337 µM
- inhibition at 10 µg/mL [1]: 17.46 ± 0.11%
- IC50 ([2]; IC50 BChE): 95.9 µM
- inhibition at 10 µg/mL [2]: 35.16 ± 0.27%
- Equivalent Urease (µg thiourea activity/mg compound) [4]: 103.05±0.11 µg thiourea activity/mg compou
- inhibition at 10 µg/mL [4]: 29.7 ± 1.16%

SMILES: O=C(O)C(O)Cc1ccc(O)c(O)c1 (stereo not drawn) [Compound 11, Danshensu Salt]
- IC50 ([2]; IC50 BChE): 122 µM
- inhibition at 10 µg/mL [2]: 35.37 ± 0.13%
- Inhibition (%) Tyrosinase [3]: 6.20±0.08%
- Equivalent Tyrosinase (µg kojic acid activity/mg compound) [3]: 48.67±0.23 µg kojic acid activity/mg compound

SMILES: COc1ccc2c3c1O[C@H]1C[C@@H](O)C=C[C@@]31CCN(C)C2 [Galanthamine, galanthamine hydrobromide, reference compound]
- inhibition at 10 µg/mL [2]: 67.52 ± 0.41%

SMILES: O=c1cc(CO)occ1O [Kojic acid, reference compound]
- Inhibition (%) Tyrosinase [3]: 69.07±0.38%

SMILES: NC(N)=S [Thiourea, thiourea, reference compound]
- Inhibition (%) Urease [4]: 75.14±1.34%
